Literature values, collected in patent publication US20230201393A1, “DI[…] AND METHODS USING POLYMER COMPOSITIONS THAT FORM CHLORINE DIOXIDE GAS” (priority 2020, published 2023).

Legend:
poliovirus 1 = conditions: 4 ppm ClO2, 5 minutes of exposure

Structure (SMILES): [O][Cl+][O-] [Chlorine dioxide]
- survival rate (Influenza A; 0.03 ppm ClO2 administered after, versus 30% when untreated): 100%
- log kill (Influenza A; 0.03 ppm of ClO2 administered at the same time as the virus): 4 log
- inactivation (poliovirus 1): ≥ 99.9%
- miscibility in water: up to 60 g/L
